Experimental data: US8778919B2, “Cyclic anilino—pyridinotriazines” (Janssen Pharmaceutica NV, priority 2005, dated 2014)

Legend:
Format in all cases: biochemical
GSK-3β = GSK-3β (Homo sapiens, UniProt P49841); assay: GSK-3 kinase assay (C1), GSK-3β; settings: 1 μM ATP, read-out: C1 Score β
Method: (§1) In vitro GSK-3 assays were performed at room temperature in a 100 μl reaction volume of 25 mM Tris (pH 7.4) containing 10 mM MgCl2.6H2O, 1 mM DTT, 0.1 mg/ml BSA, 5% glycerol, 5.7 ng/μl GSK-3β or 0.25 ng/μl GSK-3α, 5 μM biotinylated CREB peptide, 1 μM ATP, 0.85 μCi/ml ^33P-ATP and a suitable amount of a test compound. After one hour, the reaction was terminated by adding 70 μl of Stop mix (0.1 mM ATP, 5 mg/ml streptavidin coated PVT SPA beads, pH 11.0). The beads were allowed to settle overnight and the radioactivity attached to the beads was counted in a microtiter plate scintillation counter and compared with the results obtained in a control experiment (without the presence of a test compound) in order to determine the percentage of GSK-3 inhibition. The IC50 value, i.e. the concentration (M) of the test compound at which 50% of GSK-3 is inhibited, was calculated from the dose response curve obtained by performing the above-described GSK-3 assay in the presence of different amounts of the test compound. Score 1=pIC50 value<6, Score 2=pIC50 value from 6-7, Score 3=pIC50 value from 7-8, Score 4=pIC50 value>8.

GSK-3α = GSK-3α (Homo sapiens, UniProt P49840); assay: GSK-3 kinase assay (C1), GSK-3α; settings: 1 μM ATP, read-out: C1 Score α
Method: as §1

CDK2/cyclinE (h) = CDK2/cyclinE (h) (Homo sapiens, UniProt P24941); assay: Kinase profiling C3.4 CDK2/cyclinE human; settings: test concentration of 10^−6 M
Method: (§2) The in vitro inhibition of a panel of kinases was assessed using either the glass-fiber filter technology as described by Davies, S. P. et al., Biochem J. (2000), 351; p. 95-105. In the glass-fiber filter technology the activity of the kinase of interest is measured using an appropriate substrate that is incubated with the aforementioned kinase protein in the presence of (^33P) radiolabeled ATP. (^33P) Phosporylation of the substrate is subsequently measured as radioactivity bound on a glassfiber-filter.
(§3) All kinases are pre-diluted to a 10× working concentration prior to addition into the assay. The composition of the dilution buffer for each kinase is detailed below.
(§4) All substrates are dissolved and diluted to working stocks in de-ionised water, apart from histone H1 that is stored in 10× working stock in 20 mM MOPS pH 7.4.
(§5) In a final reaction volume of 25 μl, CDK2/cyclinE (h) (5-10 mU) is incubated with 8 mM MOPS pH 7.0, 0.2 mM EDTA, 0.1 mg/ml histone H1, 10 mM MgAcetate and [γ-^33P-ATP] (specific activity approx. 500 cpm/pmol, concentration as required). The reaction is initiated by the addition of the MgATP mix. After incubation for 40 minutes at room temperature, the reaction is stopped by the addition of 5 μl of a 3% phosphoric acid solution. 10 μl of the reaction is then spotted onto a P30 filtermat and washed three times for 5 minutes in 75 mM phosphoric acid and once in methanol prior to drying and scintillation counting.

CDK1/cyclinB (h) = CDK1/cyclinB (h) (Homo sapiens, UniProt P06493); assay: Kinase profiling C3.2 CDK1/cyclinB human; settings: test concentration of 10^−6 M
Method: as §2, §3, §4
as §5, with “CDK1/cyclinB” for “CDK2/cyclinE”

CDK2/cyclinA (h) = CDK2/cyclinA (h) (Homo sapiens, UniProt P24941); assay: Kinase profiling C3.3 CDK2/cyclinA human; settings: test concentration of 10^−6 M
Method: as §2, §3, §4
as §5, with “CDK2/cyclinA” for “CDK2/cyclinE”

CDK7/cyclinH/MAT1 (h) = CDK7/cyclinH/MAT1 (h) (Homo sapiens, UniProt P50613); assay: Kinase profiling C3.8 CDK7/cyclinH/MAT1 human; settings: CDK7/cyclinH/MAT1, test concentration of 10^−6 M
Method: as §2, §3, §4
as §5, with “CDK7/cyclinH/MAT1” for “CDK2/cyclinE”, “500 μM peptide,” for “0.1 mg/ml histone H1,”

CDK5/p35 human = CDK5/p35 human (Homo sapiens, UniProt Q00535); assay: Kinase profiling C3.6 CDK5/p35 human; settings: CDK5/p35, test concentration of 10^−6 M
Method: as §2, §3, §4
as §5, with “CDK5/p35 human” for “CDK2/cyclinE (h)”

CDK3/cyclinE (h) = CDK3/cyclinE (h) (Homo sapiens, UniProt Q00526); assay: Kinase profiling C3.5 CDK3/cyclinE human; settings: test concentration of 10^−6 M
Method: as §2, §3, §4
as §5, with “CDK3/cyclinE” for “CDK2/cyclinE”

Sequence of GSK-3β (P49841 whole entry, species assumed): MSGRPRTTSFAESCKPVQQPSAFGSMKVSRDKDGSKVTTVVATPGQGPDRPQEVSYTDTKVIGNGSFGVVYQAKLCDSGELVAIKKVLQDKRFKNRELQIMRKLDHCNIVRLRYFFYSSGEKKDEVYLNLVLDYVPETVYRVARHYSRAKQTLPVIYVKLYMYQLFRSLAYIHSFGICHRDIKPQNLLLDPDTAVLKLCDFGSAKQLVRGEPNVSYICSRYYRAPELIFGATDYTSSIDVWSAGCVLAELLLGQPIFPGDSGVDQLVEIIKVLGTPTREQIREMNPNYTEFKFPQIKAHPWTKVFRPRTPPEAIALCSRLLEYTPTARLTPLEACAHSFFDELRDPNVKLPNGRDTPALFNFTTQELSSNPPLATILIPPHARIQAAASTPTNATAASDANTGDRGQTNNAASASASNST
Sequence of GSK-3α (P49840 whole entry, species assumed): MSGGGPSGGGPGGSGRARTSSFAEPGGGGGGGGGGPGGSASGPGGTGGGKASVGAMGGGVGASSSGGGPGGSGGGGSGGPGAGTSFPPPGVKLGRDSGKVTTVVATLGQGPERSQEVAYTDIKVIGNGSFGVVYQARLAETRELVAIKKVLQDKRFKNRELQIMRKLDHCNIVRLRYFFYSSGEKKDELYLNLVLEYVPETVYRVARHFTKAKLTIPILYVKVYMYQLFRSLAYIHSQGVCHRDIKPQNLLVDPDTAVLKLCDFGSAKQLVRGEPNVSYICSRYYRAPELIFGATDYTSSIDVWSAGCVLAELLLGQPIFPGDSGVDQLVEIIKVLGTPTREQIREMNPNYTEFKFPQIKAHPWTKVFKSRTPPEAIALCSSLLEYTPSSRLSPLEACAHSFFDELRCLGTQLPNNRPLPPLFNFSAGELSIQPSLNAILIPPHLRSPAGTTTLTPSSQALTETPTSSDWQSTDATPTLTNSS
Sequence of CDK7/cyclinH/MAT1 (h) (P50613 whole entry): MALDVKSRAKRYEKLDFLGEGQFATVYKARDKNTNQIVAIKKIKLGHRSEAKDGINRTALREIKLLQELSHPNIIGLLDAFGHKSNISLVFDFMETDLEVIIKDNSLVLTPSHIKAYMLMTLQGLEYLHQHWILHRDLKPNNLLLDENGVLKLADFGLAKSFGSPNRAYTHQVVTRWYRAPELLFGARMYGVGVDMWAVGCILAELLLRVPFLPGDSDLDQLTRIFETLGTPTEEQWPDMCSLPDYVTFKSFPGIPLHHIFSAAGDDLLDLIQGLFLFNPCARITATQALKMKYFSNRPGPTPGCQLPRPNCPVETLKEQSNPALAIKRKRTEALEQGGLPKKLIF
Sequence of CDK7/cyclinH/MAT1 (h) (P51946 whole entry partner): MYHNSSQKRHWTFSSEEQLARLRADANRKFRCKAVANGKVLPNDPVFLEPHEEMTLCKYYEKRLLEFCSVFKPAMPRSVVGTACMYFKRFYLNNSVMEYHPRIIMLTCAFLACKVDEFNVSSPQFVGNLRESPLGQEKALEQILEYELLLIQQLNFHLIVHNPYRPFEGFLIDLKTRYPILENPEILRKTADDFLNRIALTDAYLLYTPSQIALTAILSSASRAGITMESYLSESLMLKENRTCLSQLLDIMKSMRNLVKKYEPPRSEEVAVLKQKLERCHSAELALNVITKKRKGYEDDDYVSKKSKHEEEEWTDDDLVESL
Sequence of CDK7/cyclinH/MAT1 (h) (P51948 whole entry partner): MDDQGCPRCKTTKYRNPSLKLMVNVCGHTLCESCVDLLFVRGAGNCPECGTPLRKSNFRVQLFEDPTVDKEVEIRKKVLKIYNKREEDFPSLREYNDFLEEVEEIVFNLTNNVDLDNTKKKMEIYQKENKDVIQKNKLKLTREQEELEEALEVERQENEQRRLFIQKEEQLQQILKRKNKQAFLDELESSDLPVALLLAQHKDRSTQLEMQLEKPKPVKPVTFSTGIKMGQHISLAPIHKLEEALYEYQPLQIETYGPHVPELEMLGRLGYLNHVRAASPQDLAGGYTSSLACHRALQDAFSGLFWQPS
Sequence of CDK5/p35 human (Q00535 whole entry): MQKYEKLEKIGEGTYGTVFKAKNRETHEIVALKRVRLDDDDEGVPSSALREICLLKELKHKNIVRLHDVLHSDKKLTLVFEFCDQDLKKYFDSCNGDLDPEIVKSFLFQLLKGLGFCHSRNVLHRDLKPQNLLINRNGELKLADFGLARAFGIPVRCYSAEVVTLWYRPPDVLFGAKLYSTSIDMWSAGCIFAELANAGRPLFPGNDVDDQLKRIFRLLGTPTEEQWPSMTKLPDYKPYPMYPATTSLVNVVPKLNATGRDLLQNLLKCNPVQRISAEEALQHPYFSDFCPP
Sequence of CDK5/p35 human (Q15078 whole entry partner): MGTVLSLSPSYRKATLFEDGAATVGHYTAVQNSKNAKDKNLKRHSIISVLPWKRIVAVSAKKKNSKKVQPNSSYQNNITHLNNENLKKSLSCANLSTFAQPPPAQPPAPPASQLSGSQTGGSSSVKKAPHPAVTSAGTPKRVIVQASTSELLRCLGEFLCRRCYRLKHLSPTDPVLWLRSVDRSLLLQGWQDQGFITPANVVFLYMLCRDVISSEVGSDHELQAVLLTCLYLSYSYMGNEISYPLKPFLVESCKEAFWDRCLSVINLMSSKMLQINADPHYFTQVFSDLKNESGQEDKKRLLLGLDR
Sequence of CDK1/cyclinB (h) (P06493 whole entry): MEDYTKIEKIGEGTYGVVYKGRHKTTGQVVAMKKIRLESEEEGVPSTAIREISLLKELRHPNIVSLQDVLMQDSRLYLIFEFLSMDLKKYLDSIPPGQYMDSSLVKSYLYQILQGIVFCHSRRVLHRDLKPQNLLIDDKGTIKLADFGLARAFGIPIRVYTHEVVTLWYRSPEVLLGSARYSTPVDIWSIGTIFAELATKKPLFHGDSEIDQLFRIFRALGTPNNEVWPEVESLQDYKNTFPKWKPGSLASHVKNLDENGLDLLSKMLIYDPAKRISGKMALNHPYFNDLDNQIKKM
Sequence of CDK1/cyclinB (h) (P14635 whole entry partner): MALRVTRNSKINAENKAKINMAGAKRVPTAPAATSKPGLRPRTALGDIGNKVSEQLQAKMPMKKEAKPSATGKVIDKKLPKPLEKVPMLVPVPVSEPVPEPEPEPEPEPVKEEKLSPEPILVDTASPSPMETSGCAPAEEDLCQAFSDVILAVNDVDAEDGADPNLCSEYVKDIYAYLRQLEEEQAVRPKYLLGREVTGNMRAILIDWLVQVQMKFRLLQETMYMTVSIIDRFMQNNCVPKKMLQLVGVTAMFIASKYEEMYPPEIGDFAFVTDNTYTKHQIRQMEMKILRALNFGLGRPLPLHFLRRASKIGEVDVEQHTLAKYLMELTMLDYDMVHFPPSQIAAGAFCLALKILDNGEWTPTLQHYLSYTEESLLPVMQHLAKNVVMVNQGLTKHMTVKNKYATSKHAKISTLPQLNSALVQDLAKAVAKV

SMILES | IC50 (GSK-3α) | also measured
O=C1NCCCc2cc(ccn2)-c2ncnc(n2)Nc2cccc(c2)CN2CCC1CC2 [Compound 16] | 10 to 100 nM | IC50 (GSK-3β): 10 to 100 nM
O=C1NCCc2cccc(c2)Nc2ncnc(n2)-c2ccnc(c2)CCCN2CCCC12 (stereo not shown) [Compound 28] | 100 to 1000 nM | IC50 (GSK-3β): 10 to 100 nM
O=C1CCN2CCN(CCCc3cc(ccn3)-c3ncnc(n3)Nc3cccc(c3)CCN1)CC2 [Compound 29] | 10 to 100 nM | IC50 (GSK-3β): 10 to 100 nM
O=C1NCCCc2cc(ccn2)-c2ncnc(n2)Nc2cc(Cl)cc(c2)CN2CCC[C@@H]12 [Compound 38] | 100 to 1000 nM | C3.4 score (CDK2/cyclinE (h)): 4 (Score 4 = >80% inhibition); C3.2 score (CDK1/cyclinB (h)): 4 (Score 4 = >80% inhibition); C3.3 score (CDK2/cyclinA (h)): 4 (Score 4 = >80% inhibition); C3.8 score (CDK7/cyclinH/MAT1 (h)): 3 (Score 3 = 60-80% inhibition); C3.6 score (CDK5/p35 human): 2 (Score 2 = 30-60% inhibition); C3.5 score (CDK3/cyclinE (h)): 3 (Score 3 = 60-80% inhibition); IC50 (GSK-3β): 100 to 1000 nM
O=C1NCCCc2cc(ccn2)-c2ncnc(n2)Nc2cc(Cl)cc(c2)CN2CCCC1C2 (stereo not shown) [Compound 39] | 100 to 1000 nM | C3.4 score (CDK2/cyclinE (h)): 3 (Score 3 = 60-80% inhibition); C3.2 score (CDK1/cyclinB (h)): 2 (Score 2 = 30-60% inhibition); C3.3 score (CDK2/cyclinA (h)): 3 (Score 3 = 60-80% inhibition); C3.8 score (CDK7/cyclinH/MAT1 (h)): 3 (Score 3 = 60-80% inhibition); C3.6 score (CDK5/p35 human): 1 (Score 1 = 10-30% inhibition); C3.5 score (CDK3/cyclinE (h)): 2 (Score 2 = 30-60% inhibition); IC50 (GSK-3β): 10 to 100 nM
O=C1CNCc2cccc(c2)Nc2ncnc(n2)-c2cccc(c2)CCCN1 [Compound 42] | 100 to 1000 nM | 
CN1CC(=O)NCCNc2cccc(c2)-c2ncnc(n2)Nc2cccc(c2)C1 [Compound 43] | 100 to 1000 nM | IC50 (GSK-3β): 10 to 100 nM
C[C@@H]1NCc2cccc(c2)Nc2ncnc(n2)-c2cccc(c2)CCCNC1=O [Compound 44] | 100 to 1000 nM | 
O=C1NCCCc2cccc(c2)-c2ncnc(n2)Nc2cccc(c2)CN[C@H]1Cc1ccccc1 [Compound 45] | 10 to 100 nM | 
C[C@H]1NCc2cccc(c2)Nc2ncnc(n2)-c2cccc(c2)CCCNC1=O [Compound 47] | 10 to 100 nM | 
CC1(C)NCc2cccc(c2)Nc2ncnc(n2)-c2cccc(c2)CCCNC1=O [Compound 48] | 100 to 1000 nM | 
CN1CCC(=O)NCCCc2cccc(c2)-c2ncnc(n2)Nc2cccc(c2)C1 [Compound 49] | 10 to 100 nM | 
O=C1NCCCc2cccc(c2)-c2ncnc(n2)Nc2cccc(c2)CN2C[C@@H](O)C[C@H]12 [Compound 50] | 10 to 100 nM | 
O=C1NCCCc2cccc(c2)-c2ncnc(n2)Nc2cccc(c2)CN2CCC1CC2 [Compound 51] | 10 to 100 nM | 
CN1CCCC(=O)NCCCc2cccc(c2)-c2ncnc(n2)Nc2cccc(c2)C1 [Compound 53] | 10 to 100 nM | 
O=C1NCCCc2cccc(c2)-c2ncnc(n2)Nc2cccc(c2)CN2CCCC1C2 (stereo not shown) [Compound 55] | 10 to 100 nM | 

SMILES | IC50 (GSK-3α) | also measured
O=C1NCCCc2cccc(c2)-c2ncnc(n2)Nc2cccc(c2)CN2CCC[C@@H]12 [Compound 56] | 100 to 1000 nM | 
O=C1CCN2CCN(CC2)Cc2cccc(c2)Nc2ncnc(n2)-c2cccc(c2)CCCN1 [Compound 57] | 100 to 1000 nM | 
O=C1CCN2CCN(CC2)Cc2cccc(c2)Nc2ncnc(n2)-c2cccc(c2)NCCN1 [Compound 60] | 100 to 1000 nM | 
O=C1NCCNc2cccc(c2)-c2ncnc(n2)Nc2cccc(c2)CN2CCCC1C2 (stereo not shown) [Compound 61] | 100 to 1000 nM | 
O=C1NCCNc2cccc(c2)-c2ncnc(n2)Nc2cccc(c2)CN2CCC1CC2 [Compound 62] | 100 to 1000 nM | 
C[C@@H]1NCc2cccc(c2)Nc2ncnc(n2)-c2cccc(c2)NCCNC1=O [Compound 63] | 100 to 1000 nM | 
O=C1NCCNc2cccc(c2)-c2ncnc(n2)Nc2cccc(c2)CN[C@H]1Cc1ccccc1 [Compound 64] | 100 to 1000 nM | 
CN1CCC(=O)NCCCCc2cc(ccn2)-c2ncnc(n2)Nc2cccc(c2)C1 [Compound 68] | 100 to 1000 nM | 
O=C1NCCOc2ccc(cc2)-c2ncnc(n2)Nc2cccc(c2)CN2CCC1CC2 [Compound 73] | 100 to 1000 nM | 
O=C1COc2cccc(c2)Nc2ncnc(n2)-c2ccnc(c2)CCCN1 [Compound 74] | 10 to 100 nM | 
CN1CC(=O)NCCOc2cccc(c2)Nc2ncnc(n2)-c2ccnc(c2)C1 [Compound 76] | < 10 nM | 
CN1CC(=O)N2CCN(CCc3cc(ccn3)-c3ncnc(n3)Nc3cccc(c3)C1)CC2 [Compound 77] | 100 to 1000 nM | 
O=C1COc2cccc(c2)Nc2ncnc(n2)-c2ccnc(c2)CCCN2CCN1CC2 [Compound 78] | 10 to 100 nM | 
C=CCN1CC(=O)NCCNc2ncccc2-c2ncnc(n2)Nc2cccc(c2)C1 [Compound 79] | 100 to 1000 nM | 
C[C@H]1NCCCc2cccc(c2)-c2ncnc(n2)Nc2ccccc2CNC1=O [Compound 80] | 100 to 1000 nM | 
